A value given as a limit tells only on which side of the number the result lay.

The target in this assay is T1, Recombinant Human ENPP-2/Autotaxin (Homo sapiens, UniProt Q13822).
T1 construct: purchased R&D systems 5255-EN
Nature of the assay: LysoPLD activity measurement (autotaxin enzyme inhibition, choline release, TOOS reagent). The format is biochemical. To be noted: LysoPLD inhibitory activity; substrate 14:0 LysoPC; absorbance at 555 nm. The gist of the method: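 Autotaxin lysoPLD activity was read as choline released from 14:0 LysoPC, detected by TOOS reagent absorbance. Compound was preincubated 30 min, then substrate diluted to 300 μM was added and the reaction ran 90 minutes at 37° C. Controls contained 1% DMSO.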

Broadly, the IC50 is the concentration that gives 50% inhibition. As for `CC(C)C(=O)Nc1ccc(-n2c(=O)n(Cc3cccc(C(=O)O)c3)c3ccc(Cl)cc32)cc1` [Example 11, 3-((5-chloro-3-(4-isobutyramidophenyl)-2-oxo-2,3-dihydro-1H-benzo[d]imidazol-1-yl)methyl)benzoic acid], the IC50 lay in the range of 100 to 1000 nM.

`O=C(O)c1cccc(Cn2c(=O)n(-c3ccccc3)c3cc(Cl)ccc32)c1F` [Example 33, 3-((5-chloro-2-oxo-3-phenyl-2,3-dihydro-1H-benzo[d]imidazol-1-yl)methyl)-2-fluorobenzoic acid]: the IC50 lay within 100 to 1000 nM.

As to `O=C(O)c1cccc(C2(n3c(=O)n(-c4ccc(N5CCC(F)(F)C5)nc4)c4cc(Cl)ccc43)CC2)c1` [Example 165, 3-(1-(5-chloro-3-(6-(3,3-difluoropyrrolidin-1-yl)pyridin-3-yl)-2-oxo-2,3-dihydro-1H-benzo[d]imidazol-1-yl)cyclopropyl)benzoic acid], the 50% inhibitory concentration (IC50) is less than 10 nM.

In the case of `O=C(O)c1cccc(C2(n3c(=O)n(-c4ccc(C(=O)N5CCOCC5)cc4)c4cc(Cl)ccc43)CC2)c1` [Example 126, 3-(1-(5-chloro-3-(4-(morpholine-4-carbonyl)phenyl)-2-oxo-2,3-dihydro-1H-benzo[d]imidazol-1-yl)cyclopropyl)benzoic acid], the IC50 was less than 10 nM.

`O=C(O)c1cc(Cn2c(=O)n(-c3ccc(N4CCOCC4)cc3)c3cc(Cl)ccc32)cc(F)c1F` [Example 203, 5-((5-chloro-3-(4-morpholinophenyl)-2-oxo-2,3-dihydro-1H-benzo[d]imidazol-1-yl)methyl)-2,3-difluorobenzoic acid]: the IC50 is 10 to 100 nM.

Take `CC(C)Oc1ccc(-n2c(=O)n(Cc3cccc(C(=O)O)c3)c3ccc(Cl)cc32)cc1` [Example 14, 3-((5-chloro-3-(4-isopropoxyphenyl)-2-oxo-2,3-dihydro-1H-benzo[d]imidazol-1-yl)methyl)benzoic acid]: the IC50 lay in the range of 10 to 100 nM.

For the compound `O=C(O)c1cccc(C2(n3c(=O)n(-c4ccc(N5CCCC5)cc4)c4cc(Cl)ccc43)CC2)c1` [Example 146, 3-(1-(5-chloro-2-oxo-3-(4-(pyrrolidin-1-yl)phenyl)-2,3-dihydro-1H-benzo[d]imidazol-1-yl)cyclopropyl)benzoic acid], the concentration for half-maximal inhibition (IC50) is less than 10 nM.

As to `O=C(O)c1cc(F)cc(C2(n3c(=O)n(-c4ccc(C5(O)CCC5)cc4)c4cc(Cl)ccc43)CC2)c1` [Example 257, 3-(1-(5-chloro-3-(4-(1-hydroxycyclobutyl)phenyl)-2-oxo-2,3-dihydro-1H-benzo[d]imidazol-1-yl)cyclopropyl)-5-fluorobenzoic acid], the IC50 is less than 10 nM.

On to `O=C(O)c1cccc(C2(n3c(=O)n(-c4ccc(CC5COC5)cc4)c4cc(Cl)ccc43)CC2)c1` [Example 240, 3-(1-(5-chloro-3-(4-(oxetan-3-ylmethyl)phenyl)-2-oxo-2,3-dihydro-1H-benzo[d]imidazol-1-yl)cyclopropyl)benzoic acid], for which the IC50 was less than 10 nM.

On to `O=C(O)c1cccc(Cn2c(=O)n(-c3ccc(N4CCC(F)(F)CC4)cc3)c3cc(Cl)ccc32)c1F` [Example 118, 3-((5-chloro-3-(4-(4,4-difluoropiperidin-1-yl)phenyl)-2-oxo-2,3-dihydro-1H-benzo[d]imidazol-1-yl)methyl)-2-fluorobenzoic acid], for which the IC50 was in the range of 10 to 100 nM.

For `O=C(O)c1cccc(C2(n3c(=O)n(-c4ccc(C5(O)COC5)cc4)c4cc(Cl)ccc43)CC2)c1` [Example 258, 3-(1-(5-chloro-3-(4-(3-hydroxyoxetan-3-yl)phenyl)-2-oxo-2,3-dihydro-1H-benzo[d]imidazol-1-yl)cyclopropyl)benzoic acid], the IC50 is less than 10 nM.

Turning to `COc1ccc(-n2c(=O)n(Cc3cccc(C(=O)O)c3)c3ccc(Cl)cc32)cc1` [Example 5, 3-((5-chloro-3-(4-methoxyphenyl)-2-oxo-2,3-dihydro-1H-benzo[d]imidazol-1-yl)methyl)benzoic acid], the IC50 fell in the range of 10 to 100 nM.

As to `O=C(O)c1cccc(C2(n3c(=O)n(-c4ccc(C5=CCOC5)cc4)c4cc(Cl)ccc43)CC2)c1F` [Example 123, 3-(1-(5-chloro-3-(4-(2,5-dihydrofuran-3-yl)phenyl)-2-oxo-2,3-dihydro-1H-benzo[d]imidazol-1-yl)cyclopropyl)-2-fluorobenzoic acid], the IC50 was less than 10 nM.

As to `CN(C)C(=O)Cc1ccc(-n2c(=O)n(C3(c4cccc(C(=O)O)c4)CC3)c3ccc(Cl)cc32)cc1` [Example 139, 3-(1-(5-chloro-3-(4-(2-(dimethylamino)-2-oxoethyl)phenyl)-2-oxo-2,3-dihydro-1H-benzo[d]imidazol-1-yl)cyclopropyl)benzoic acid], the half-maximal inhibitory concentration (IC50) is less than 10 nM.

As to `C[C@@H]1COCCN1C(=O)Cc1ccc(-n2c(=O)n(C3(c4cccc(C(=O)O)c4)CC3)c3ccc(Cl)cc32)cc1` [Example 178, (R)-3-(1-(5-chloro-3-(4-(2-(3-methylmorpholino)-2-oxoethyl)phenyl)-2-oxo-2,3-dihydro-1H-benzo[d]imidazol-1-yl)cyclopropyl)benzoic acid], the IC50 was less than 10 nM.

For `O=C(O)c1cccc(Cn2c(=O)n(-c3ccc(C4CCN(C(=O)C5CC5)CC4)cc3)c3c(F)c(Cl)ccc32)c1F` [Example 150, 3-((5-chloro-3-(4-(1-(cyclopropanecarbonyl)piperidin-4-yl)phenyl)-4-fluoro-2-oxo-2,3-dihydro-1H-benzo[d]imidazol-1-yl)methyl)-2-fluorobenzoic acid], the IC50 fell in the range of 10 to 100 nM.

`CN(C)c1ccc(-n2c(=O)n(C(C)(C)c3cccc(C(=O)O)c3)c3ccc(Cl)cc32)cc1` [Example 153, 3-(2-(5-chloro-3-(4-(dimethylamino)phenyl)-2-oxo-2,3-dihydro-1H-benzo[d]imidazol-1-yl)propane-2-yl)benzoic acid]: the concentration for half-maximal inhibition (IC50) is 10 to 100 nM.

For `O=C(O)c1cccc(C2(n3c(=O)n(-c4ccc(C5=CCOCC5)cc4)c4cc(Cl)ccc43)CC2)c1` [Example 121, 3-(1-(5-chloro-3-(4-(3,6-dihydro-2H-pyran-4-yl)phenyl)-2-oxo-2,3-dihydro-1H-benzo[d]imidazol-1-yl)cyclopropyl)benzoic acid], the half-maximal inhibitory concentration (IC50) was less than 10 nM.

Regarding `CCC(=O)N1CCC(c2ccc(-n3c(=O)n(C4(c5cc(F)cc(C(=O)O)c5)CC4)c4ccc(Cl)cc43)cc2)CC1` [Example 235, 3-(1-(5-chloro-2-oxo-3-(4-(1-propionylpiperidin-4-yl)phenyl)-2,3-dihydro-1H-benzo[d]imidazol-1-yl)cyclopropyl)-5-fluorobenzoic acid], the half-maximal inhibitory concentration (IC50) is less than 10 nM.

Take `CC(C)c1ccc(-n2c(=O)n(Cc3cccc(C(=O)O)c3)c3ccc(Cl)cc32)cc1` [Example 17, 3-((5-chloro-3-(4-isopropylphenyl)-2-oxo-2,3-dihydro-1H-benzo[d]imidazol-1-yl)methyl)benzoic acid]: the IC50 lay in the range of 100 to 1000 nM.

As to `O=C(O)c1cccc(C2(n3c(=O)n(-c4ccc(N5CC6(CCC6)C5)cc4)c4cc(Cl)ccc43)CC2)c1` [Example 184, 3-(1-(3-(4-(2-azaspiro[3.3]heptan-2-yl)phenyl)-5-chloro-2-oxo-2,3-dihydro-1H-benzo[d]imidazol-1-yl)cyclopropyl)benzoic acid], the IC50 lay in the range of 10 to 100 nM.

With `O=C(O)c1cccc(C2(n3c(=O)n(-c4ccc(C(=O)N5CC6(COC6)C5)cc4)c4cc(Cl)ccc43)CC2)c1F` [Example 135, 3-(1-(3-(4-(2-oxa-6-azaspiro[3.3]heptane-6-carbonyl)phenyl)-5-chloro-2-oxo-2,3-dihydro-1H-benzo[d]imidazol-1-yl)cyclopropyl)-2-fluorobenzoic acid], the 50% inhibitory concentration (IC50) was less than 10 nM.

As for `CN1Cc2cc(-n3c(=O)n(C4(c5cccc(C(=O)O)c5)CC4)c4ccc(Cl)cc43)ccc2C1=O` [Example 245, 3-(1-(5-chloro-3-(2-methyl-1-oxoisoindolin-5-yl)-2-oxo-2,3-dihydro-1H-benzo[d]imidazol-1-yl)cyclopropyl)benzoic acid], the IC50 is less than 10 nM.

In the case of `O=C(O)c1cccc(C2(n3c(=O)n(-c4ccc(C(=O)N5CC(O)C5)cc4)c4cc(Cl)ccc43)CC2)c1` [Example 128, 3-(1-(5-chloro-3-(4-(3-hydroxyazetidine-1-carbonyl)phenyl)-2-oxo-2,3-dihydro-1H-benzo[d]imidazol-1-yl)cyclopropyl)benzoic acid], the IC50 was less than 10 nM.

For the compound `CC1CC=C(c2ccc(-n3c(=O)n(Cc4cccc(C(=O)O)c4F)c4ccc(Cl)cc43)cc2)CC1` (centres unmarked) [Example 111, 3-((5-chloro-3-(4′-methyl-2′,3′,4′,5′-tetrahydro-′[1,1′-biphenyl]-4-yl)-2-oxo-2,3-dihydro-1H-benzo[d]imidazol-1-yl)methyl)-2-fluorobenzoic acid], the IC50 lay within 100 to 1000 nM.

With `CCOc1ccc(-n2c(=O)n(Cc3cccc(C(=O)O)c3)c3ccc(Cl)cc32)cn1` [Example 75, 3-((5-chloro-3-(6-ethoxypyridin-3-yl)-2-oxo-2,3-dihydro-1H-benzo[d]imidazol-1-yl)methyl)benzoic acid], the IC50 is 100 to 1000 nM.

As to `O=C(O)c1cc(F)cc(C2(n3c(=O)n(-c4ccc(C(=O)N5CC6(CCOCC6)C5)cc4)c4cc(Cl)cnc43)CC2)c1` [Example 275, 3-(1-(1-(4-(7-oxa-2-azaspiro[3.5]nonane-2-carbonyl)phenyl)-6-chloro-2-oxo-1,2-dihydro-3H-imidazo[4,5-b]pyridin-3-yl)cyclopropyl)-5-fluorobenzoic acid], the half-inhibitory concentration (IC50) is less than 10 nM.

Take `CC(C)(C)c1ccc(-n2c(=O)n(Cc3cccc(C(=O)O)c3)c3ccc(Cl)cc32)cc1` [Example 12, 3-((3-(4-(tert-butyl)phenyl)-5-chloro-2-oxo-2,3-dihydro-1H-benzo[d]imidazol-1-yl)methyl)benzoic acid]: the IC50 lay within 100 to 1000 nM.

Take `CN(C)c1ccc(-n2c(=O)n(Cc3cccc(C(=O)O)c3)c3ccc(Cl)cc32)cc1` [Example 10, 3-((5-chloro-3-(4-(dimethylamino)phenyl)-2-oxo-2,3-dihydro-1H-benzo[d]imidazol-1-yl)methyl)benzoic acid]: the IC50 lay within 10 to 100 nM.

These data come from patent US20260265265A1, “NOVEL BENZIMIDAZOLONE DERIVATIVE COMPOUND AS AUTOTAXIN INHIBITOR” (LG CHEM, LTD., priority 2023, published 2026).
